Laboratory results taken from patent publication US20080176952A1, “Management of Ophthalmologic Disorders, Including Macular Degeneration” (priority 2004, published 2008).

Experiments:
[1] = target: T1, RPE65 (Bos taurus, UniProt Q28175); test: Fluorescence binding assay of retinoids and analogs to purified RPE65; set-up: species or system bovine; conditions: antagonist of RPE65; read-out: KD
T1 construct: Frozen bovine eyecups devoid of retinas were purchased from W. L. Lawson Co; tissue W. L. Lawson Co; host or cells: bovine eyecups (retinal pigment epithelium)
T1 sequence (Q28175 whole entry): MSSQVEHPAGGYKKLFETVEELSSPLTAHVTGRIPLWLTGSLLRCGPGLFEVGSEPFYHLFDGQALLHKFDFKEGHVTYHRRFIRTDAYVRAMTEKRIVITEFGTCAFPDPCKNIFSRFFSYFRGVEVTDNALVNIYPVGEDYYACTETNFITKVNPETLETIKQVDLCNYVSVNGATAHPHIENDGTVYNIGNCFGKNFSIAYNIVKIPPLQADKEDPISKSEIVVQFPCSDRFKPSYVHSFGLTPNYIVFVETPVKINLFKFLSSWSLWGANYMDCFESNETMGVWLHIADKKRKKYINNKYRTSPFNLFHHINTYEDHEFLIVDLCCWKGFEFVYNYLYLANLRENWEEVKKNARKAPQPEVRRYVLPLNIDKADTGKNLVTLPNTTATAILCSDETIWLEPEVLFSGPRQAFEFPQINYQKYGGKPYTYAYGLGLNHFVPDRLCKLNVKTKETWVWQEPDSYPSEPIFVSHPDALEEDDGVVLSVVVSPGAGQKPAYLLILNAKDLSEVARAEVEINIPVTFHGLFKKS
Experimental: Purification of mRPE65, sRPE65 and rHRPE65: Purification was performed as described before (Ma et al., 2001). The purities of these proteins were verified by silver staining or Coomassie staining and Western blot (1:4000 primary antibody-1 h at room temperature and 1:4000 secondary antibody-0.5 h at room temperature).
(§1) Fluorescence binding assays: RPE65 in PBS, 1% CHAPS, pH 7.4 was used in the fluorometric titration studies. Protein concentrations were measured by a modified Lowry method (Lowry et al., 1951). All titrations were performed at 25° C. The samples in PBS buffer were excited at 280 nm and the fluorescence was scanned from 300 to 500 nm. Fluorescence measurements, using 450 μL quartz cuvettes with a 0.5 cm path length, were made at 25° C. on a Jobin Yvon Instruments, Fluoromax 2 employing the right-angle detection method.
(§2) The fluorescence of the protein solution was measured after equilibrating it at 25° C. for 10 min. The sample was then titrated with a solution of retinoid dissolved in dimethyl sulfoxide. In each titration, to a 250 μL solution of the protein an equal amount of retinoid, typically 0.2 μL. was added and thoroughly mixed before allowing it to equilibrate for 10 min prior to recording the fluorescence intensity. […] The binding constant (KD) was calculated from the fluorescence intensity by using the following equation (Gollapalli et al., 2003).
where P0=Total protein concentration,
n=number of independent binding sites, R0=Total retixioid concentration at each addition, KD=dissociation constant, Fmax=Fluorescence intensity at saturation, and F0=Initial fluorescence intensity.

[2] = tested on: A2E accumulation; test: In vivo A2E accumulation in abcr knockout mice; conditions: for A2E accumulation / iso-A2E accumulation / total (A2E + iso-A2E) accumulation: 50 mg/kg once or twice a week, 2 to 2½ months; for reduction of A2E accumulation / reduction of iso-A2E accumulation / reduction of total A2E accumulation: versus no drug
Experimental: Effects on accumulation of A2E in abcr knockout mice by farnesyl decyl ketone and N-palmityl farnesimide were investigated. Mice were injected with 50 mg/kg drug in 25 microliters of DMSO or with only DMSO for the control group once or twice a week. After 2 to 2½ months, the mice were sacrificed, and A2E and iso-A2E were harvested and quantitated from 4 eyes for each drug or control.

[3] = target: mouse RPE65; test: Constants of affinity (Kds) for mouse RPE65; type: binding; conditions: read-out: Kd (constant of affinity) for mouse RPE65
Experimental: as §1, §2
The constants of affinity (Kds) of several compounds for mouse RPE65 were determined. […] Thus, the potency of binding is a function of the ester chain length, i.e., the longer the chain length, the stronger the affinity for RPE65 is and the stronger the antagonist is.

[4] = tested on: A2E formation; test: In vitro A2E formation in the presence of aromatic amine
Experimental: 100 mg (355 μmoles) of all-trans-retinal was dissolved in 3 mL followed by the addition of 9.5 μL of glacial acetic acid 9.5 μL of ethanolamine (155 μmoles). This solution was aliquoted into 300 μL fractions. 3-aminoethylbenzoate (15.5 μmoles) was added to the samples at 0, 2, 3.75, 14, 16.25, 18.0833 19.917 23.75 and 48 hrs. […] The solutions were shaken at room temperature for 48 hrs. The solutions were then kept at −80° C. and 15 μL was diluted to 250 μL (methanol). The solutions (15 μL) were then analyzed on a reverse phase (C18-5 μm-4.6 mm×150 mm) column on a linear gradient 85%-96% methanol/water and UV detector at 430 nm to determine the amount of A2E formation. The percent A2E formation was compared to A2E formation at 48 h in the absence of aromatic amine.

Molecule	Kd [1] [µM]	further results
CCCCCCCCCCCCCCCC(=O)OC/C=C(\C)CC/C=C(\C)CC/C=C(\C)CCC=C(C)C [geranylgeranyl palmitate]	0.213	–
CCCCCCCCCCCCCCCCNC(=O)/C=C(C)/C=C/C=C(C)/C=C/C1=C(C)CCCC1(C)C [N-palmityl retinimide]	0.04	–
CC1=C(/C=C/C(C)=C/C=C/C(C)=C/C(=O)NC(C)(C)C)C(C)(C)CCC1 [N-tert-butyl retinimide]	4.32	–
CCCCCCCCCCCCCCCC(=O)NC/C=C(\C)CC/C=C(\C)CCC=C(C)C	0.056	–
CCCCCCCCCCCCCCCC(=O)CC/C=C(\C)CC/C=C(\C)CCC=C(C)C	0.096	–
CCCCCCCCCCCCCCCCNC(=O)C/C=C(\C)CC/C=C(\C)CCC=C(C)C [N-palmityl farnesimide]	–	A2E accumulation [2]: 5.38 pmoles/eye; iso-A2E accumulation [2]: 1.70 pmoles/eye; total (A2E + iso-A2E) accumulation [2]: 7.09 pmoles/eye; reduction of A2E accumulation [2]: over 50%; reduction of iso-A2E accumulation [2]: about 33%; reduction of total A2E accumulation [2]: about 47%
retinyl hexanoate	0.235	Kd [3]: 0.235 µM
CC(=O)CC/C=C(C)/C=C/C=C(C)/C=C/C1=C(C)CCCC1(C)C	3.79	–
CCCCCCCCCCCCCCCC(=O)NC/C=C(C)/C=C/C=C(C)/C=C/C1=C(C)CCCC1(C)C [4e]	–	Kd [3]: 0.04 µM
CCCCCCCCCC(=O)CC/C=C(\C)CC/C=C(\C)CCC=C(C)C	0.056	–
CCOC(=O)c1cccc(N)c1 [3-aminoethylbenzoate, ethyl 3-aminobenzoate]	–	A2E formation % formation (48 Hrs = 100) ([4]; aromatic amine added at 0 hrs, read at 48 hrs): 3.98%; A2E formation % formation (48 Hrs = 100) ([4]; aromatic amine added at 2 hrs, read at 48 hrs): 8.67%; A2E formation % formation (48 Hrs = 100) ([4]; aromatic amine added at 3.75 hrs, read at 48 hrs): 7.71%; A2E formation % formation (48 Hrs = 100) ([4]; aromatic amine added at 14 hrs, read at 48 hrs): 19.73%; A2E formation % formation (48 Hrs = 100) ([4]; aromatic amine added at 16.25 hrs, read at 48 hrs): 19.25%; A2E formation % formation (48 Hrs = 100) ([4]; aromatic amine added at 18.0833 hrs, read at 48 hrs): 23.70%; A2E formation % formation (48 Hrs = 100) ([4]; aromatic amine added at 19.91667 hrs, read at 48 hrs): 27.65%; A2E formation % formation (48 Hrs = 100) ([4]; aromatic amine added at 23.75 hrs, read at 48 hrs): 22.44%; A2E formation % formation (48 Hrs = 100) ([4]; aromatic amine added at 48 hrs, reference = 100): 100.00%
CCCCCCCCCCCCCCCC(=O)CC/C=C(C)/C=C/C=C(C)/C=C/C1=C(C)CCCC1(C)C [4f]	0.064	Kd [3]: 0.064 µM
CC(=O)/C=C(C)/C=C/C=C(C)/C=C/C1=C(C)CCCC1(C)C [methyl retinyl ketone]	3.79	–
CCCCCCOC/C=C(C)/C=C/C=C(C)/C=C/C1=C(C)CCCC1(C)C [hexyl retinyl ether]	0.151	–
CCCCCCCCCCCCCCCCOC/C=C(C)/C=C/C=C(C)/C=C/C1=C(C)CCCC1(C)C [palmityl retinyl ether]	0.025	Kd [3]: 0.021 µM
CCCCCCCCCCCCCCCCOC/C=C(\C)CC/C=C(\C)CCC=C(C)C [farnesyl palmityl ether]	0.06	–
COCCOCCOC/C=C(C)/C=C/C=C(C)/C=C/C1=C(C)CCCC1(C)C [retinyl [2-(2′-methoxy)ethoxy]ethyl ether]	0.486	–
CC1=C(/C=C/C(C)=C/C=C/C(C)=C/C(=O)N(C)C)C(C)(C)CCC1 [N,N-dimethyl retinimide]	3.58	–
COC/C=C(C)/C=C/C=C(C)/C=C/C1=C(C)CCCC1(C)C [methyl retinyl ether]	0.024	–
CCCCCCCCCCC(=O)CC=C(C)CCC=C(C)CCC=C(C)C [farnesyl decyl ketone]	–	A2E accumulation [2]: 2.00 pmoles/eye; iso-A2E accumulation [2]: 0.66 pmoles/eye; total (A2E + iso-A2E) accumulation [2]: 2.66 pmoles/eye; reduction of A2E accumulation [2]: over 80%; reduction of iso-A2E accumulation [2]: about 74%; reduction of total A2E accumulation [2]: about 80%
CCCCCCCCCCCCCCCC(=O)OC/C=C(\C)CC/C=C(\C)CCC=C(C)C [farnesyl palmitate]	0.063	–
CCCCCCCCCCCCCCCCOC/C=C(\C)CCC=C(C)C [geranyl palmityl ether]	0.416	–
CCCCCCCCCCCCCCCCC(O)/C=C(C)/C=C/C=C(C)/C=C/C1=C(C)CCCC1(C)C (stereo not shown) [palmityl retinyl alcohol]	0.17	–
CC(=O)OC/C=C(C)/C=C/C=C(C)/C=C/C1=C(C)CCCC1(C)C [retinyl acetate]	1.3	Kd [3]: 1.3 µM
CCCCCCCCCCCCCCCCC(=O)/C=C(C)/C=C/C=C(C)/C=C/C1=C(C)CCCC1(C)C [palmityl retinyl ketone]	0.064	–
CCCCCCCCCCCCCCCC(=O)OC/C=C(\C)CCC=C(C)C [geranyl palmitate]	0.301	–
CCCCCCCCCCCCCCCC(=O)OC/C=C(C)/C=C/C1=C(C)CCCC1(C)C [β-ionoacetyl palmitate]	0.153	–
CCCCCCCCCC(=O)CC/C=C(C)/C=C/C=C(C)/C=C/C1=C(C)CCCC1(C)C	0.173	–
CCCCCCCCCCCCCCCCOC/C=C(C)/C=C/C1=C(C)CCCC1(C)C [β-ionoacetyl palmityl ether]	0.156	–
CCCCCCCCCCCCCCCCOC/C=C(\C)CC/C=C(\C)CC/C=C(\C)CCC=C(C)C [geranylgeranyl palmityl ether]	0.195	–
